Results on 4 substances are retold here after patent US20080058269A1, “Insulin Releasing Peptides” (priority 2003, published 2008).

Like-named read-outs stand apart in the source and are kept apart here.

Assay [1] has as its system BRIN-BD11 cells. Type of assay: cell-based, rat. The conditions noted are these: for Insulin-releasing action in the presence of verapamil (in words): 50 μM verapamil, calcium channel blocker; for Insulin-releasing action in cells depolarised with KCl (in words): 30 mM KCl. On the procedure: (§1) Culture of insulin-secreting cells: Clonal rat insulin-secreting BRIN-BD11 cells were cultured in RPMI-1640 tissue culture medium containing 10% (v/v) fetal calf serum, 1% (v/v) antibiotics (100 U/ml penicillin, 0.1 mg/ml streptomycin) and 11.1 mM glucose. The production and characterisation of BRIN-BD11 cells are described elsewhere. Cells were maintained in sterile tissue culture flasks (Corning, Glass Works, UK) at 37° C. in an atmosphere of 5% CO2 and 95% air using LEEC incubator (Laboratory Technical Engineering, Nottingham, UK). In three experimental series using purified peptides from Agalychnis calcarifer, Bombina variegata and Rana saharica cells were cultured overnight with 25 μM forskolin, 10 nM PMA or 0.1 μg/ml pertussis toxin prior to acute tests.
Acute insulin release studies: Insulin release from BRIN-BD11 cells was determined using cell monolayers [McClenaghan N H, Barnett C R, Ah-Sing E, Abdel-Wahab Y H, O'Harte F P, Yoon T W, Swanston-Flatt S K and Flatt P R 1996 Characterization of a novel glucose-responsive insulin-secreting cell line, BRIN-BD11, produced by electrofusion. Diabetes 45 1132-1140]. The cells were harvested with the aid of trypsin/EDTA (Gibco), seeded into 24-multiwell plates (Nunc, Rosklide, Denmark) at a density of […] per well, and allowed to attach overnight. Prior to acute test, cells were preincubated for 40 min at 37° C. in a 1.0 ml Krebs Ringer bicarbonate buffer (115 mM NaCl, 4.7 mM KCl, 1.28 MM CaCl2, 1.2 MM KH2PO4, 1.2 mM MgSO4, 10 mM NaHCO3, 5 g/l bovine serum albumin, pH 7.4) supplemented with 1.1 mM glucose. Test incubations were performed for 20 min at 37° C. using the same buffer supplemented with 5.6 mM glucose in the absence (control) and presence of various venom fractions, peaks (equivalent to approx. 25 μl dried HPLC fraction) or test agents as indicated in the Figures. Cell viability after 20 min test incubations was assessed by modified neutral red assay [Hunt S M, Chrzanowska C, Barnnett C R, Brand H N and Fawell J K 1987 A comparison of in vitro cytotoxicity assays and their application to water samples. Alternatives to Laboratory Animals 15 20-29]. After incubation, aliquots of buffer were removed and stored at −20° C. for insulin radiomnimmunoassay [Flatt P R. and Bailey C J 1981 Abnormal plasma glucose and insulin responses in heterozygous lean (ob/+) mice. Diabetologia 20 573-577].

For assay [2], the system named is BRIN-BD11 cells. The assay is described as follows: Acute insulin release from BRIN-BD11 cells cultured overnight with forskolin, PMA or pertussis toxin. Type of assay: cell-based, rat. As to conditions: acute test at 5.6 mM glucose; for Stimulatory effect on insulin secretion in cells cultured overnight with PMA: 10 nM PMA overnight (protein kinase C pathway); for Stimulatory effect on insulin secretion in cells cultured overnight with pertussis toxin: 0.1 μg/ml pertussis toxin overnight (G-protein pathway); for Stimulatory effect on insulin secretion in cells cultured overnight with forskolin: 25 μM forskolin overnight (desensitised cyclic AMP-protein kinase A pathway). As to the method: FIG. 8 illustrates the dependence of the stimulatory effects of 1653.2 Da purified peptide (peak 1.10) from Agalychnis calcarifer on intracellular pathways mediated by protein kinase A (forskolin), protein kinase C (PMA) or pertussis toxin-sensitive G-proteins. Legend: Acute effects of the 13 amino acid 1653.2 Da purified peptide (peak 1.10) from Agalychnis calcarifer on forskolin and PMA on insulin secretion from BRIN-BD11 cells cultured overnight in the absence (control) and presence of 25 μM forskolin, 10 nM PMA or 0.1 μg/ml pertussis toxin. Acute incubations were performed at 5.6 mM glucose. Values are the mean ±SEM for 8 separate observations. ***P<0.001 compared with 5.6 mM glucose alone under same culture conditions. ^ΔΔΔp<0.001 compared with respective test reagent following control culture.
FIG. 9 illustrates the dependence of the stimulatory effects of 1641.7 Da, 1662.6 Da, 1619.8 Da and 1650.5 Da purified peptides (peaks 21, 22, 23 and 24) from Bombina variegata on intracellular pathways mediated by protein kinase A (forskolin), protein kinase C (PMA) or pertussis toxin-sensitive G-proteins. Legend: Acute effects of 1641.7, 1662.6, 1619.8 and 1650.5 Da purified peptides (peaks 21, 22, 23 and 24) from Bombina variegata on forskolin and PMA on insulin secretion from BRIN-BD11 cells cultured overnight in the absence (control) and presence of 25 μM forskolin, 10 nM PMA or 0.1 μg/ml pertussis toxin. Acute incubations were performed at 5.6 mM glucose. Values are the mean ±SEM for 8 separate observations. **P<0.001 compared with 5.6 mM glucose alone under same culture conditions. ^ΔP<0.001 compared with respective test reagent following control culture.
FIG. 10 illustrates the dependence of the stimulatory effects of 4920.4 Da and 4801.2 Da purified peptides (peaks 5.1 and 5.4) from Rana saharica on intracellular pathways mediated by protein kinase A (forskolin), protein kinase C (PMA) or pertussis toxin-sensitive G-proteins. Legend: Acute effects of 4920.4 and 4801.2 Da purified peptides (peaks 5.1 and 5.4) from Rana saharica on forskolin and PMA on insulin secretion from BRIN-BD11 cells cultured overnight in the absence (control) and presence of 25 μM forskolin, 10 nM PMA or […] pertussis toxin. Acute incubations were performed at 5.6 mM glucose. Values are the mean ±SEM for 8 separate observations. ***P<0.001 compared with 5.6 mM glucose alone under same culture conditions. ^ΔΔP<0.001 compared with respective test reagent following control culture.
as §1
Acute insulin release studies: Insulin release from BRIN-BD11 cells was determined using cell monolayers [McClenaghan N H, Barnett C R, Ah-Sing E, Abdel-Wahab Y H, O'Harte F P, Yoon T W, Swanston-Flatt S K and Flatt P R 1996 Characterization of a novel glucose-responsive insulin-secreting cell line, BRIN-BD11, produced by electrofusion. Diabetes 45 1132-1140]. The cells were harvested with the aid of trypsin/EDTA (Gibco), seeded into 24-multiwell plates (Nunc, Rosklide, Denmark) at a density of […] per well, and allowed to attach overnight. […]

Where [3] appears, read: Table 9, no addition, 5.6 mM glucose, 8 observations, control 1.69 ± 0.17.
[4] abbreviates: Table 9, peptide plus KCl (30 mM), 5.6 mM glucose, 8 observations.
Where [5] appears, read: Table 9, peptide plus verapamil (50 μM), 5.6 mM glucose, 8 observations.

Take “GKPFYPPPIYPEDM [Peptide 24, peptide from Bombina variegata, 57% ID to tryptophyllin]”: in the assay with BRIN-BD11 cells [1], the “Insulin release (ng/10^6 cells/20 mins)” value came out at 4.30 ± 0.20 ng/10^6 cells/20 mins, the “Insulin-releasing action in the presence of verapamil (in words)” value (“Insulin-releasing action in the presence” below) is “not affected” and the “Insulin-releasing action in cells depolarised with KCl (in words)” value is on record as “clearly evident”. Moreover, the “Insulin secretion (ng/10^6 cells/20 min)” value in the assay with BRIN-BD11 cells [1] (setting [3]) is 3.31 ± 0.20 ng/10^6 cells/20 min. In addition, the “Insulin secretion (ng/10^6 cells/20 min)” value in the assay on BRIN-BD11 cells [1] (setting [4]) is on record as 15.35 ± 0.41ΔΔΔ*** ng/10^6 cells/20 min. Also, the “Insulin secretion (ng/10^6 cells/20 min)” value in the assay on BRIN-BD11 cells [1] (setting [5]) is on record as 3.08 ± 0.29 ng/10^6 cells/20 min. Moreover, in the assay with BRIN-BD11 cells [2], the “Stimulatory effect on insulin secretion in cells cultured overnight with PMA” value (shortened to “Stimulatory effect … with PMA”) is on record as “did not affect”, the “Stimulatory effect on insulin secretion in cells cultured overnight with pertussis toxin” value (“Stimulatory effect … with pertussis toxin” for short) is “did not affect” and the “Stimulatory effect on insulin secretion in cells cultured overnight with forskolin” value (“Stimulatory effect … with forskolin” below) is reported as “abolished”.
Consider “Pyr-DSFGNQWARGHFM-amidated (HELM PEPTIDE1{[Glp].D.S.F.G.N.Q.W.A.R.G.H.F.M.[am]}$$$$V2.0; SMILES CSCC[C@H](NC(=O)[C@H](Cc1ccccc1)NC(=O)[C@H](Cc1c[nH]cn1)NC(=O)CNC(=O)[C@H](CCCNC(=N)N)NC(=O)[C@H](C)NC(=O)[C@H](Cc1c[nH]c2ccccc12)NC(=O)[C@H](CCC(N)=O)NC(=O)[C@H](CC(N)=O)NC(=O)CNC(=O)[C@H](Cc1ccccc1)NC(=O)[C@H](CO)NC(=O)[C@H](CC(=O)O)NC(=O)[C@@H]1CCC(=O)N1)C(N)=O) [Peptide 22, peptide from Bombina variegata, 72% ID to bombesin]”, for which, in the assay on BRIN-BD11 cells [1], the “Insulin release (ng/10^6 cells/20 mins)” value worked out at 4.75 ± 0.13 ng/10^6 cells/20 mins, the “Insulin-releasing action in the presence” value is listed as “not affected” and the “Insulin-releasing action in cells depolarised with KCl (in words)” value is “clearly evident”. Further, the “Insulin secretion (ng/10^6 cells/20 min)” value in the assay with BRIN-BD11 cells [1] (setting [3]) worked out at 3.23 ± 0.14 ng/10^6 cells/20 min. Also, the “Insulin secretion (ng/10^6 cells/20 min)” value in the assay with BRIN-BD11 cells [1] (setting [4]) is reported as 13.69 ± 1.43ΔΔΔ*** ng/10^6 cells/20 min. The “Insulin secretion (ng/10^6 cells/20 min)” value in the assay with BRIN-BD11 cells [1] (setting [5]) came to 3.05 ± 0.09 ng/10^6 cells/20 min. Also, in the assay with BRIN-BD11 cells [2], the “Stimulatory effect … with PMA” value was “did not affect”, the “Stimulatory effect … with pertussis toxin” value is recorded as “did not affect” and the “Stimulatory effect … with forskolin” value is “abolished”.
With “Pyr-QRLGHQWAVGHLM-amidated (N-terminal pyroglutamate, C-terminal amide) [Peptide 21, peptide from Bombina variegata, (His)^6Bombesin, 93% ID to bombesin]”, in the assay with BRIN-BD11 cells [1], the “Insulin release (ng/10^6 cells/20 mins)” value worked out at 4.66 ± 0.24 ng/10^6 cells/20 mins, the “Insulin-releasing action in the presence” value is on record as “not affected” and the “Insulin-releasing action in cells depolarised with KCl (in words)” value is reported as “clearly evident”. Also, the “Insulin secretion (ng/10^6 cells/20 min)” value in the assay on BRIN-BD11 cells [1] (setting [3]) was 3.65 ± 0.05 ng/10^6 cells/20 min. The “Insulin secretion (ng/10^6 cells/20 min)” value with BRIN-BD11 cells [1] (setting [4]) is 13.68 ± 1.42ΔΔΔ*** ng/10^6 cells/20 min. Besides, in the assay with BRIN-BD11 cells [1] (setting [5]), the “Insulin secretion (ng/10^6 cells/20 min)” value was determined as 4.25 ± 0.82 ng/10^6 cells/20 min. In addition, in the assay on BRIN-BD11 cells [2], the “Stimulatory effect … with PMA” value is “did not affect”, the “Stimulatory effect … with pertussis toxin” value is on record as “did not affect” and the “Stimulatory effect … with forskolin” value is given as “abolished”.
As to “RRKPLFPFIPRPK [Peptide 1.10, 13 amino acid 1653.2 Da purified peptide from Agalychnis calcarifer]”, in the assay with BRIN-BD11 cells [1], the “Insulin-releasing action in the presence” value is on record as “not affected” and the “Insulin-releasing action in cells depolarised with KCl (in words)” value is given as “clearly evident”. Besides, the “Insulin secretion (ng/10^6 cells/20 min)” value in the assay with BRIN-BD11 cells [1] (Table 8, no addition, 5.6 mM glucose, control 1.68 ± 0.16) came to 2.75 ± 0.12 ng/10^6 cells/20 min. In addition, the “Insulin secretion (ng/10^6 cells/20 min)” value with BRIN-BD11 cells [1] (Table 8, peptide plus KCl (30 mM), 5.6 mM glucose) is recorded as 16.45 ± 0.10 ΔΔ*** ng/10^6 cells/20 min. In addition, the “Insulin secretion (ng/10^6 cells/20 min)” value in the assay on BRIN-BD11 cells [1] (Table 8, peptide plus verapamil (50 μM), 5.6 mM glucose) is reported as 3.54 ± 0.20 ΔΔ*** ng/10^6 cells/20 min. Further, in the assay with BRIN-BD11 cells [1] (peptides from Agalychnis calcarifer, 5.6 mM glucose, no-peptide control 1.71 ± 0.12), the “Insulin release (ng/10^6 cells/20 mins)” value is recorded as 2.61 ± 0.11 ng/10^6 cells/20 mins. In the assay with BRIN-BD11 cells [2], the “Stimulatory effect … with PMA” value is on record as “did not affect”, the “Stimulatory effect … with pertussis toxin” value was “did not affect” and the “Stimulatory effect … with forskolin” value is on record as “abolished”.
